Laboratory results from ChEMBL document CHEMBL5212743, “Selectivity Literature for EUbOPEN Chemogenomics Library wave 3” (2023).

What was measured:
[1] = target: High affinity nerve growth factor receptor (Homo sapiens, UniProt P04629); test: Selectivity interaction (KinomeScan (DiscoverX, competition-binding assay))
[2] = target: T1, Alpha-1B adrenergic receptor (Homo sapiens, UniProt P35368); test: Selectivity interaction (GPCR panel (PDSP screen)) EUB0000739a ADRA1B
T1 sequence (P35368 whole entry): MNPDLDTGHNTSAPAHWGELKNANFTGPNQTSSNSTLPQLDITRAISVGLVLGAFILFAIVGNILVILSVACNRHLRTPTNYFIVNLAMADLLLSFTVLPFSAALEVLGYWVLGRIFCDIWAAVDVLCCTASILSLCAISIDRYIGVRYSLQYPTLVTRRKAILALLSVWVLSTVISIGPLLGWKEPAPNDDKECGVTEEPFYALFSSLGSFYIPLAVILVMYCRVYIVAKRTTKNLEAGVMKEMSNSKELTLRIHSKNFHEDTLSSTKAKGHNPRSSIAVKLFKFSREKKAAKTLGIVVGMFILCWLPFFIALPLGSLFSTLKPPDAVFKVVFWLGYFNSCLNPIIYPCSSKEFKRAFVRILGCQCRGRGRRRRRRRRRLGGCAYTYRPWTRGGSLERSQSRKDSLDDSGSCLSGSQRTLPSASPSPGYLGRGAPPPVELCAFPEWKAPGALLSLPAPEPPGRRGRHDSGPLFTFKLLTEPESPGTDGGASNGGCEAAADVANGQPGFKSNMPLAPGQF

[3] = target: T2, Gamma-aminobutyric acid receptor subunit alpha-1 (Homo sapiens, UniProt P14867); test: Selectivity interaction (GPCR panel (PDSP screen)) EUB0000739a GABRA1
T2 sequence (P14867 whole entry): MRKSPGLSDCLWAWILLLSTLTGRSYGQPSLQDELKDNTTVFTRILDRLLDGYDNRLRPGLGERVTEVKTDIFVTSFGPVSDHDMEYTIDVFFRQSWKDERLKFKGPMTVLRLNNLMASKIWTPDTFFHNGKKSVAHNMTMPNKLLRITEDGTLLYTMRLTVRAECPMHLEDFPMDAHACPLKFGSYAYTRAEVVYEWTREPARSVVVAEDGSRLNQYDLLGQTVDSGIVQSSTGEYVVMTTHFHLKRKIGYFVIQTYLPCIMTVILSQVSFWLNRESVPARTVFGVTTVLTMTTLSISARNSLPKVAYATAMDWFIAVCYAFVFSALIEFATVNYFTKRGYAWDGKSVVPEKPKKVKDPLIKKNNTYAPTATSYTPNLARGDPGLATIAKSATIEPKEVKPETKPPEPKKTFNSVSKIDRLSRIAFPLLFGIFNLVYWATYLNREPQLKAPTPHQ

[4] = target: Tyrosine-protein kinase ABL1 (Homo sapiens, UniProt P00519); conditions: at 1 µM
[5] = target: Tyrosine-protein kinase JAK2 (Homo sapiens, UniProt O60674); conditions: at 1 µM
[6] = target: Ribosomal protein S6 kinase alpha-6 (Homo sapiens) (UniProt Q9UK32); test: Selectivity interaction (Kinase panel (Millipore)) EUB0000153b RPS6KA6; conditions: at 10 µM
[7] = target: T3, Serine/threonine-protein kinase Sgk1 (Homo sapiens) (UniProt O00141); test: Selectivity interaction (Kinase panel (Millipore)) EUB0000153b SGK1; conditions: at 10 µM
T3 sequence (whole entry): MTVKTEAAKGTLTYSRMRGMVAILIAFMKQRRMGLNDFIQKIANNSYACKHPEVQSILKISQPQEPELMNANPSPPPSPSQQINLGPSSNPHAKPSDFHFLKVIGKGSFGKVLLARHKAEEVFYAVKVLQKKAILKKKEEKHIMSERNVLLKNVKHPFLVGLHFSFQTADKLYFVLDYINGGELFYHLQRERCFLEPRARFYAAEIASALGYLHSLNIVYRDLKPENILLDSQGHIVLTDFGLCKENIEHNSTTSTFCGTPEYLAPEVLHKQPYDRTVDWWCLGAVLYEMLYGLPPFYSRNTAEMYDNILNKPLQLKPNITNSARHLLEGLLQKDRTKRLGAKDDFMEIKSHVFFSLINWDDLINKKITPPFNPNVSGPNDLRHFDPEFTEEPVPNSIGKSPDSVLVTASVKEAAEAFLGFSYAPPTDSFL

[8] = target: Serine/threonine-protein kinase Sgk2 (Homo sapiens) (UniProt Q9HBY8); test: Selectivity interaction (Kinase panel (Millipore)) EUB0000153b SGK2; conditions: at 10 µM
[9] = target: NUAK family SNF1-like kinase 1 (Homo sapiens) (UniProt O60285); test: Selectivity interaction (Kinase panel (Millipore)) EUB0000153b NUAK1; conditions: at 10 µM
[10] = target: Glycogen synthase kinase-3 beta (Homo sapiens, UniProt P49841); test: Selectivity interaction (Kinase panel (enzymatic assay)) EUB0000153b GSK3B
[11] = target: Inhibitor of nuclear factor kappa-B kinase subunit alpha (Homo sapiens, UniProt O15111); test: Selectivity interaction (Kinase panel (enzymatic assay)) EUB0000153b CHUK
[12] = target: Mitogen-activated protein kinase kinase kinase 5 (Homo sapiens, UniProt Q99683); test: Selectivity interaction (Kinase panel (enzymatic assay)) EUB0000153b MAP3K5
[13] = target: RAC-alpha serine/threonine-protein kinase (Homo sapiens, UniProt P31749); test: Selectivity interaction (Kinase panel (enzymatic assay)) EUB0000153b AKT1
[14] = target: Tyrosine-protein kinase SYK (Homo sapiens, UniProt P43405); test: Selectivity interaction (Kinase panel (enzymatic assay)) EUB0000153b SYK
[15] = target: Vascular endothelial growth factor receptor 2 (Homo sapiens, UniProt P35968); test: Selectivity interaction (Kinase panel (enzymatic assay)) EUB0000153b KDR
[16] = target: TGF-beta receptor type-1 (Homo sapiens, UniProt P36897); test: Selectivity interaction (Kinase panel (enzymatic assay)) EUB0000153b TGFBR1
[17] = target: Rho-associated protein kinase 2 (Homo sapiens) (UniProt O75116); test: Selectivity interaction (Kinase panel (Millipore)) EUB0000153b ROCK2; conditions: at 10 µM
[18] = target: Phosphatidylinositol 4,5-bisphosphate 3-kinase catalytic subunit gamma isoform (Homo sapiens, UniProt P48736); test: Selectivity interaction (Kinase panel (enzymatic assay)) EUB0000153b PIK3CG
[19] = target: cAMP-dependent protein kinase catalytic subunit PRKX (Homo sapiens) (UniProt P51817); test: Selectivity interaction (Kinase panel (Millipore)) EUB0000153b PRKX; conditions: at 10 µM
[20] = target: Ribosomal protein S6 kinase alpha-2 (Homo sapiens) (UniProt Q15349); test: Selectivity interaction (Kinase panel (Millipore)) EUB0000153b RPS6KA2; conditions: at 10 µM
[21] = target: T1, Alpha-1B adrenergic receptor; test: Selectivity interaction (Receptors and enzyme panel (internal screening at GSK)) EUB0000215b ADRA1B
[22] = target: T4, Histone-lysine N-methyltransferase EZH1 (Homo sapiens, UniProt Q92800); test: Selectivity interaction (Methyltransferase panel (HotSpot screen, Reaction Biology, radioisotope-based filter binding assays)) EUB0000215b EZH1
T4 sequence (Q92800 whole entry): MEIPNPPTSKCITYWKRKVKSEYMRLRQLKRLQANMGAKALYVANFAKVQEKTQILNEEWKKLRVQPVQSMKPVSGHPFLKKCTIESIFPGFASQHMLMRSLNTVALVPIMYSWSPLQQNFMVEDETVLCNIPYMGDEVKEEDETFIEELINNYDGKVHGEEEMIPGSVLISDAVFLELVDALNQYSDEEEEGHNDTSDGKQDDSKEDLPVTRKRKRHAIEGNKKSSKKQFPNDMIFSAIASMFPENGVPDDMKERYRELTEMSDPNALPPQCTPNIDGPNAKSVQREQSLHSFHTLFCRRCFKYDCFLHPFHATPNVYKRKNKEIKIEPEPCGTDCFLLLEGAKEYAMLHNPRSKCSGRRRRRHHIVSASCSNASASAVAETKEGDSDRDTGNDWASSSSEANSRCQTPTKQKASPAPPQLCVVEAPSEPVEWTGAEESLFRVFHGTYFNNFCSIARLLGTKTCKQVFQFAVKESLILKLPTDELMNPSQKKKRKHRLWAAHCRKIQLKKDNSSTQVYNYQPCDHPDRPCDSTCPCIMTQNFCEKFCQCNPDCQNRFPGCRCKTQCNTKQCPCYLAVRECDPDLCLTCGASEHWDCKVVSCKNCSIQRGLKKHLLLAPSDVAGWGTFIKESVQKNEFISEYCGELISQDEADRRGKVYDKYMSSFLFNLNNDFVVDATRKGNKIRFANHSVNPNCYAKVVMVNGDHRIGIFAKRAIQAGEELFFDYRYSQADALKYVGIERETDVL

[23] = target: Sodium channel regulatory subunit beta-2 (Homo sapiens, UniProt O60939); test: Selectivity interaction (Enzyme and Receptor panel (MSD Pharma/Taiwan)) EUB0000753a SCN2B
[24] = target: Mitogen-activated protein kinase kinase kinase kinase 5 (Homo sapiens) (UniProt Q9Y4K4); conditions: at 1 µM
[25] = target: Mitogen-activated protein kinase kinase kinase kinase 4 (Homo sapiens) (UniProt O95819); conditions: at 1 µM
[26] = target: Epidermal growth factor receptor (Homo sapiens, UniProt P00533); conditions: at 1 µM
[27] = target: Activin receptor type-2A (Homo sapiens) (UniProt P27037); conditions: at 1 µM
Chain of Activin receptor type-2A (Homo sapiens) (P27037 whole entry): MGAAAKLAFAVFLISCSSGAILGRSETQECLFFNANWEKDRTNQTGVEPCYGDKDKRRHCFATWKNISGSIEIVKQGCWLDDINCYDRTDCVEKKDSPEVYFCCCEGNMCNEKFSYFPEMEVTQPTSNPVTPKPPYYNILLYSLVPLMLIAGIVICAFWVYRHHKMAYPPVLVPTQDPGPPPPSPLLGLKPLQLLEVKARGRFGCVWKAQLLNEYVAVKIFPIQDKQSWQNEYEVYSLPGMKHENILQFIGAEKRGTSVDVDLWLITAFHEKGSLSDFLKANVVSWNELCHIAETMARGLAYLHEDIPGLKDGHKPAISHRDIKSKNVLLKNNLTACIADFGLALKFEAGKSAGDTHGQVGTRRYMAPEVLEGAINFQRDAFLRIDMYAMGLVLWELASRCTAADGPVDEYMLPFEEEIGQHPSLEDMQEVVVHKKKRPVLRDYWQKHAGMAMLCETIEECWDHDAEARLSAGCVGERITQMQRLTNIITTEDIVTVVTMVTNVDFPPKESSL

Chain of Ribosomal protein S6 kinase alpha-2 (Homo sapiens) (Q15349 whole entry, looked up): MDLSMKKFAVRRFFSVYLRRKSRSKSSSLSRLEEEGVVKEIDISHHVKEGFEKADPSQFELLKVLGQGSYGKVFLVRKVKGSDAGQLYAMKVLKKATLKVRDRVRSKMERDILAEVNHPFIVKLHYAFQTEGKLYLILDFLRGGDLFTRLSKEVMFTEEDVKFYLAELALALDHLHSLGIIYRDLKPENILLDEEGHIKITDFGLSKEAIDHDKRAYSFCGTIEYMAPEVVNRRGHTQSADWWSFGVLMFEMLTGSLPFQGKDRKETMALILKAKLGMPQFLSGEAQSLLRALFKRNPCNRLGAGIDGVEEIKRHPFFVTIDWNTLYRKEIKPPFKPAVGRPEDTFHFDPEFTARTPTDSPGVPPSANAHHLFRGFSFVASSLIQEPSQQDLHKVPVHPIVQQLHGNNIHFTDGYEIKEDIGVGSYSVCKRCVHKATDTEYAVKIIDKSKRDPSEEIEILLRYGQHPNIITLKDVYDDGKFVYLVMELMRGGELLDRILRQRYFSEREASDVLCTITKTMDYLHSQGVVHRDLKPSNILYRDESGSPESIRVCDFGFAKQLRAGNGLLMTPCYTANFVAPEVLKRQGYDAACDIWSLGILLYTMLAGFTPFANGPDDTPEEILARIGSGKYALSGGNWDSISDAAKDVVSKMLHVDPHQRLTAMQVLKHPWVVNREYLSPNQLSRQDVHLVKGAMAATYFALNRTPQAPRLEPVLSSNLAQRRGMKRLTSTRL
Chain of Rho-associated protein kinase 2 (Homo sapiens) (O75116 whole entry, looked up, canonical isoform): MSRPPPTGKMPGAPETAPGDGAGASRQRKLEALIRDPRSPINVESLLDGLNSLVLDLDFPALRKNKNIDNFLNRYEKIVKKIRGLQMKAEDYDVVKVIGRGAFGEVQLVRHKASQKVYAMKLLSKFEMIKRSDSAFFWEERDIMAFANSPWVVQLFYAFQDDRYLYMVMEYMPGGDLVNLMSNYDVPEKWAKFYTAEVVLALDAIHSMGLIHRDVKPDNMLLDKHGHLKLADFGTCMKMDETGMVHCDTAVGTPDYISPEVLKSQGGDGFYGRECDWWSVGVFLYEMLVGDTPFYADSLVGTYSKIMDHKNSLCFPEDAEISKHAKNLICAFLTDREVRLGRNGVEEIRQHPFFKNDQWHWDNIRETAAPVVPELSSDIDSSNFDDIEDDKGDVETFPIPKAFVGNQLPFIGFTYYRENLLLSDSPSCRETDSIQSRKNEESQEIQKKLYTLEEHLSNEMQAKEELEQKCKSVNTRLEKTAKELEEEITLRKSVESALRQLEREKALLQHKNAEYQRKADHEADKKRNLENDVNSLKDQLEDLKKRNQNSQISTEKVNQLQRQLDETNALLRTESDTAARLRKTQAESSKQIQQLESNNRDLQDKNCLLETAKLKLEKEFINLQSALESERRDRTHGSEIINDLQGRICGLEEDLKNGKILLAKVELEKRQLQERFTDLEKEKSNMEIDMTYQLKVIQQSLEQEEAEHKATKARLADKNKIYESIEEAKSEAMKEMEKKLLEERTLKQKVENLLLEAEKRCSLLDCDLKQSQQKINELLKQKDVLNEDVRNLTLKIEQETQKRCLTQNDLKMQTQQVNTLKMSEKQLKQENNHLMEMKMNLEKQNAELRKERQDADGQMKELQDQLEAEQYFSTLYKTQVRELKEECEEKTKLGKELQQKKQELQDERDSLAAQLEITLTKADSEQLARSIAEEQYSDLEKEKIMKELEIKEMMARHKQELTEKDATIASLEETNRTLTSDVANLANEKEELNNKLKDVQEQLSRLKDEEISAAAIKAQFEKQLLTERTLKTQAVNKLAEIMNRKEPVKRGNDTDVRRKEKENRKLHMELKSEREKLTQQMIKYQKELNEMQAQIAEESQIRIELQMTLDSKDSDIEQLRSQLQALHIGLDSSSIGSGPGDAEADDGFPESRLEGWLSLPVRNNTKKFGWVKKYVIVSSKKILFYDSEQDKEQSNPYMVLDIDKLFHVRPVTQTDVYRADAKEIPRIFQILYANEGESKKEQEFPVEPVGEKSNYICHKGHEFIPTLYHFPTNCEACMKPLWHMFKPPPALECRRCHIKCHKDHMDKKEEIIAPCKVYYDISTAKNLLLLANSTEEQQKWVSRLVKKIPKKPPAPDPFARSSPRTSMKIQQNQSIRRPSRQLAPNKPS
Chain of Tyrosine-protein kinase ABL1 (P00519 whole entry): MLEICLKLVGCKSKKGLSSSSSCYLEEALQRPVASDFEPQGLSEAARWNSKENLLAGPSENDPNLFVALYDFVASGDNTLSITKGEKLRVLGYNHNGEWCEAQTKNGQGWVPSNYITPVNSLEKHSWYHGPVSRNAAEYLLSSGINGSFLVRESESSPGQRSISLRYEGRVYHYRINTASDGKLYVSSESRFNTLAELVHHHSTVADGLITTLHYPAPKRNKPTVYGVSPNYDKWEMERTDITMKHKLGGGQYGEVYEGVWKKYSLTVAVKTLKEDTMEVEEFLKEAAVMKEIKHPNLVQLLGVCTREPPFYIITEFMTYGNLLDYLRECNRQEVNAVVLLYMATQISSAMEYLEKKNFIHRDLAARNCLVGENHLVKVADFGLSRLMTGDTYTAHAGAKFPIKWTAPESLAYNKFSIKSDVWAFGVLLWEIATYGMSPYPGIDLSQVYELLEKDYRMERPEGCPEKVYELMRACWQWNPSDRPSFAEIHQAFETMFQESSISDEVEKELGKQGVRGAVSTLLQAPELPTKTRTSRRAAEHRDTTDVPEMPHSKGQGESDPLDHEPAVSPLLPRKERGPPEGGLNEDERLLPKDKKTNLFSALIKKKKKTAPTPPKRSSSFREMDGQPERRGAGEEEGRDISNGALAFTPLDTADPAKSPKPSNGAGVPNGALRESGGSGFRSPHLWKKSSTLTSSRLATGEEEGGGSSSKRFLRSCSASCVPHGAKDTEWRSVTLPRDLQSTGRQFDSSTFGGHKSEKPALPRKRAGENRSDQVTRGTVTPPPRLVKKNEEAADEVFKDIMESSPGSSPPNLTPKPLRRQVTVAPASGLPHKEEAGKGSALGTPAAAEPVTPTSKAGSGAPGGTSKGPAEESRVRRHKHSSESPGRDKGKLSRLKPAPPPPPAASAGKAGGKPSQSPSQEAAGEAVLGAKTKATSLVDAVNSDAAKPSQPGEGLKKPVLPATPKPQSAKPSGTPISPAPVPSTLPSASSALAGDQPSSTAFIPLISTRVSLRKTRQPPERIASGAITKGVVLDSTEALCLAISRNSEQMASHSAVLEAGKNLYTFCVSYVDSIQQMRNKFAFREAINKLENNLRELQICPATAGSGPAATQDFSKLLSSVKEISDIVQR
Chain of Vascular endothelial growth factor receptor 2 (P35968 whole entry): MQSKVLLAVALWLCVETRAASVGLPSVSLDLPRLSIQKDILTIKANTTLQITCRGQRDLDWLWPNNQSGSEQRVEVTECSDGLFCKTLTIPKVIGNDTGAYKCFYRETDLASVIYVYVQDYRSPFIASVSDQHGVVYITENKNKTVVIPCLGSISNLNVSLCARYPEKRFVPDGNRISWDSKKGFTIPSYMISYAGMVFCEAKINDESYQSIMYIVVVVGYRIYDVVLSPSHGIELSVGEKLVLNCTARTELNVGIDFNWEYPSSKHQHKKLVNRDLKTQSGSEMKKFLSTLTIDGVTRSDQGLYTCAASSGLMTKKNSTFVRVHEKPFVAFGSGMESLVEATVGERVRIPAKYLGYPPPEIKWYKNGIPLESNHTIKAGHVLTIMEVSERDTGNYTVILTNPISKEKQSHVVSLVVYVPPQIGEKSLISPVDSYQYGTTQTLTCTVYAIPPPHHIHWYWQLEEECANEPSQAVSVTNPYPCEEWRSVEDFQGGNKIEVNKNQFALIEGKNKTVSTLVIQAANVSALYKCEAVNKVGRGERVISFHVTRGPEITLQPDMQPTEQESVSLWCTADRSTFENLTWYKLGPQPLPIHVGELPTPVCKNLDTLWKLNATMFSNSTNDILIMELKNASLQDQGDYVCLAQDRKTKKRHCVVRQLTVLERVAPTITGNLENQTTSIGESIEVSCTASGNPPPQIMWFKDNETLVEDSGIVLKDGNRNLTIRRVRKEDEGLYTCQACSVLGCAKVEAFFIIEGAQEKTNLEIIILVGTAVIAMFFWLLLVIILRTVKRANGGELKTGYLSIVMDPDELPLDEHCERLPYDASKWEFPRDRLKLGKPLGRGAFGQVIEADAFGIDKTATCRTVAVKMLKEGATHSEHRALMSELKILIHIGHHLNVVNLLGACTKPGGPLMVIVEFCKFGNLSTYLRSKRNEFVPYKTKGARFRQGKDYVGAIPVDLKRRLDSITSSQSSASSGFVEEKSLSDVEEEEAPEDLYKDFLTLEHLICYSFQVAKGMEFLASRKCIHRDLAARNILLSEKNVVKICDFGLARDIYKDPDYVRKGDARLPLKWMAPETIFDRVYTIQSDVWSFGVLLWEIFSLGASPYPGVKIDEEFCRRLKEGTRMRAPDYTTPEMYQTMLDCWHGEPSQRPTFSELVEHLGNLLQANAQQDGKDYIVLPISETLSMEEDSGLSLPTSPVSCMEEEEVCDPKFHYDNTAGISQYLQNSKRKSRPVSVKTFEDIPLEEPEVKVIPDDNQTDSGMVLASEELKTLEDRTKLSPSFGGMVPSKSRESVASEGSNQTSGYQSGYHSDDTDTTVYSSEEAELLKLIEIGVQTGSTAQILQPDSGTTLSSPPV

COc1ccc(COc2ccc(Cc3cnc(N)nc3N)cc2OC)cc1 [GW632580X]
Kd [1]: < 0.1 µM

COc1cc(-c2cn([C@H]3CCc4ccccc4N(CC(F)(F)F)C3=O)nn2)ccc1-n1ccc(C)n1
Ki [2]: > 10 µM
Ki [3]: 5.07 µM
% of control [4]: 47%
% of control [5]: 34%

CNc1nc(-c2ccc3c(N)n[nH]c3c2)cc(N2C[C@@H](C(=O)NC3CCCCC3)CC[C@H]2C)n1
% of control [6]: 12%
% of control [7]: 13%
% of control [8]: 0%
% of control [9]: 16%
IC50 [10]: > 10 µM
IC50 [11]: > 10 µM
IC50 [12]: > 10 µM
IC50 [13]: > 10 µM
IC50 [14]: > 10 µM
IC50 [15]: > 10 µM
IC50 [16]: > 10 µM
% of control [17]: 17%
IC50 [18]: > 10 µM
% of control [19]: 4%
% of control [20]: 14%

CCCc1cc(C)[nH]c(=O)c1CNC(=O)c1cc(-c2ccnc(N3CCN(C)CC3)c2)cc2c1cnn2C(C)C
IC50 [21]: 10 µM
IC50 [22]: 0.24 µM

COc1cc(-c2cn([C@H]3CCc4c(F)cccc4N(CC(F)(F)F)C3=O)nn2)ccc1-n1cnc(C)c1
IC50 [23]: 1 µM
% of control [24]: 5.8%
% of control [25]: 0%
% of control [26]: 0%
% of control [27]: 0%
